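How tested: cells in 96-well plates exposed to compound for 48 hours at five concentrations. The concentration for 50% growth inhibition is given as GI50. The concentration for full growth arrest is given as TGI.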
Columns and labels:
Test in all cases: NCI tumour cell line growth inhibition, 48 h
IGROV1 ovarian = system: IGROV1 ovarian
MDA-MB-231 breast = system: MDA-MB-231 breast
LOX IMVI melanoma = system: LOX IMVI melanoma
786-0 renal = system: 786-0 renal
HT29 colon = system: HT29 colon
HS 578T breast = system: HS 578T breast
MCF7 breast = system: MCF7 breast
T-47D breast = system: T-47D breast
A549 NSCLC = system: A549 NSCLC
SK-MEL-5 melanoma = system: SK-MEL-5 melanoma
SNB-75 CNS = system: SNB-75 CNS
OVCAR-4 ovarian = system: OVCAR-4 ovarian
NCI-H522 lung = system: NCI-H522 lung
MALME-3M melanoma = system: MALME-3M melanoma
SK-OV-3 ovarian = system: SK-OV-3 ovarian
BT-549 breast = system: BT-549 breast
HOP-62 NSCLC = system: HOP-62 NSCLC
TK-10 renal = system: TK-10 renal
UACC-257 melanoma = system: UACC-257 melanoma
SF-539 CNS = system: SF-539 CNS
UO-31 renal = system: UO-31 renal
HL-60(TB) leukemia = system: HL-60(TB) leukemia
SNB-19 CNS = system: SNB-19 CNS
HCC-2998 colon = system: HCC-2998 colon
MDA-MB-435 = system: MDA-MB-435
CCRF-CEM leukemia = system: CCRF-CEM leukemia
DU-145 prostate = system: DU-145 prostate
OVCAR-8 ovarian = system: OVCAR-8 ovarian
HCT-15 colon = system: HCT-15 colon
KM12 colon = system: KM12 colon
OVCAR-3 ovarian = system: OVCAR-3 ovarian
OVCAR-5 ovarian = system: OVCAR-5 ovarian
SR leukemia = system: SR leukemia
SW-620 colon = system: SW-620 colon
NCI/ADR-RES ovarian = system: NCI/ADR-RES ovarian
SF-268 CNS = system: SF-268 CNS
UACC-62 melanoma = system: UACC-62 melanoma
HCT-116 colon = system: HCT-116 colon
K-562 leukemia = system: K-562 leukemia
PC-3 prostate = system: PC-3 prostate
ACHN renal = system: ACHN renal
SK-MEL-28 melanoma = system: SK-MEL-28 melanoma
NCI-H226 lung = system: NCI-H226 lung
SN12C renal = system: SN12C renal
MOLT-4 leukemia = system: MOLT-4 leukemia
NCI-H460 lung = system: NCI-H460 lung
SF-295 CNS = system: SF-295 CNS
NCI-H23 lung = system: NCI-H23 lung
U251 CNS = system: U251 CNS
RPMI-8226 leukemia = system: RPMI-8226 leukemia
A498 renal = system: A498 renal
MDA-MB-468 breast = system: MDA-MB-468 breast
SK-MEL-2 melanoma = system: SK-MEL-2 melanoma
CAKI-1 renal = system: CAKI-1 renal
HOP-92 NSCLC = system: HOP-92 NSCLC
M14 melanoma = system: M14 melanoma
EKVX NSCLC = system: EKVX NSCLC
RXF 393 renal = system: RXF 393 renal

CCCS(=O)(=O)c1oc(-c2ccc(F)cc2)nc1S(=O)(=O)c1ccc(F)cc1
GI50 (IGROV1 ovarian): 1.84 µM | TGI (IGROV1 ovarian): 3.84 µM | GI50 (MDA-MB-231 breast): 1.65 µM | TGI (MDA-MB-231 breast): 3.04 µM | GI50 (LOX IMVI melanoma): 1.28 µM | TGI (LOX IMVI melanoma): 2.6 µM | GI50 (786-0 renal): 1.6 µM | TGI (786-0 renal): 3.1 µM | GI50 (HT29 colon): 2.06 µM | TGI (HT29 colon): 4.9 µM | GI50 (HS 578T breast): 2.33 µM | TGI (HS 578T breast): 7.43 µM | GI50 (MCF7 breast): 1.3 µM | TGI (MCF7 breast): 3.08 µM | GI50 (T-47D breast): 1.83 µM | TGI (T-47D breast): 4.2 µM | GI50 (A549 NSCLC): 13.3 µM | TGI (A549 NSCLC): 30.6 µM | GI50 (SK-MEL-5 melanoma): 3.32 µM | TGI (SK-MEL-5 melanoma): 12 µM | GI50 (SNB-75 CNS): 4.23 µM | TGI (SNB-75 CNS): 18.4 µM | GI50 (OVCAR-4 ovarian): 1.86 µM | TGI (OVCAR-4 ovarian): 4.04 µM | GI50 (NCI-H522 lung): 1.19 µM | TGI (NCI-H522 lung): 2.64 µM | GI50 (MALME-3M melanoma): 1.49 µM | TGI (MALME-3M melanoma): 2.83 µM | GI50 (SK-OV-3 ovarian): 16.3 µM | TGI (SK-OV-3 ovarian): 30.9 µM | GI50 (BT-549 breast): 1.98 µM | TGI (BT-549 breast): 3.57 µM | GI50 (HOP-62 NSCLC): 15.7 µM | TGI (HOP-62 NSCLC): 31.1 µM | GI50 (TK-10 renal): 1.88 µM | TGI (TK-10 renal): 3.35 µM | GI50 (UACC-257 melanoma): 1.62 µM | TGI (UACC-257 melanoma): 3.13 µM | GI50 (SF-539 CNS): 1.55 µM | TGI (SF-539 CNS): 2.89 µM | GI50 (UO-31 renal): 1.46 µM | TGI (UO-31 renal): 2.78 µM | GI50 (HL-60(TB) leukemia): 2.17 µM | TGI (HL-60(TB) leukemia): > 100 µM | GI50 (SNB-19 CNS): 15 µM | TGI (SNB-19 CNS): 28.2 µM | GI50 (HCC-2998 colon): 4.05 µM | TGI (HCC-2998 colon): 15.9 µM | GI50 (MDA-MB-435): 1.45 µM | TGI (MDA-MB-435): 2.98 µM | GI50 (CCRF-CEM leukemia): 0.298 µM | TGI (CCRF-CEM leukemia): 1.09 µM | GI50 (DU-145 prostate): 1.59 µM | TGI (DU-145 prostate): 2.96 µM | GI50 (OVCAR-8 ovarian): 2.12 µM | TGI (OVCAR-8 ovarian): 4.99 µM | GI50 (HCT-15 colon): 1.22 µM | TGI (HCT-15 colon): 2.73 µM | GI50 (KM12 colon): 14.5 µM | TGI (KM12 colon): 31 µM | GI50 (OVCAR-3 ovarian): 1.35 µM | TGI (OVCAR-3 ovarian): 2.77 µM | GI50 (OVCAR-5 ovarian): 3.48 µM | TGI (OVCAR-5 ovarian): 13.7 µM | GI50 (SR leukemia): 1.6 µM | TGI (SR leukemia): > 100 µM | GI50 (SW-620 colon): 0.685 µM | TGI (SW-620 colon): 2.17 µM | GI50 (NCI/ADR-RES ovarian): 2.36 µM | TGI (NCI/ADR-RES ovarian): 6.35 µM | GI50 (SF-268 CNS): 3.18 µM | TGI (SF-268 CNS): 14.7 µM | GI50 (UACC-62 melanoma): 1.68 µM | TGI (UACC-62 melanoma): 3.11 µM | GI50 (HCT-116 colon): 1.6 µM | TGI (HCT-116 colon): 3.49 µM | GI50 (K-562 leukemia): 1.64 µM | TGI (K-562 leukemia): > 100 µM | GI50 (PC-3 prostate): 3.51 µM | TGI (PC-3 prostate): 16.7 µM | GI50 (ACHN renal): 1.61 µM | TGI (ACHN renal): 2.96 µM | GI50 (SK-MEL-28 melanoma): 1.74 µM | TGI (SK-MEL-28 melanoma): 3.17 µM | GI50 (NCI-H226 lung): 13 µM | TGI (NCI-H226 lung): 34.8 µM | GI50 (SN12C renal): 2.62 µM | TGI (SN12C renal): 9.51 µM | GI50 (MOLT-4 leukemia): 1.14 µM | TGI (MOLT-4 leukemia): > 100 µM | GI50 (NCI-H460 lung): 4.46 µM | TGI (NCI-H460 lung): 19.4 µM | GI50 (SF-295 CNS): 12.6 µM | TGI (SF-295 CNS): 25.5 µM | GI50 (NCI-H23 lung): 1.9 µM | TGI (NCI-H23 lung): 4.22 µM | GI50 (U251 CNS): 16.4 µM | TGI (U251 CNS): 30.6 µM | GI50 (RPMI-8226 leukemia): 2.22 µM | TGI (RPMI-8226 leukemia): 7.44 µM | GI50 (A498 renal): 17.2 µM | TGI (A498 renal): 31 µM | GI50 (MDA-MB-468 breast): 1.29 µM | TGI (MDA-MB-468 breast): 2.89 µM | GI50 (SK-MEL-2 melanoma): 10.4 µM | TGI (SK-MEL-2 melanoma): 22.7 µM | GI50 (CAKI-1 renal): 1.43 µM | TGI (CAKI-1 renal): 2.76 µM | GI50 (HOP-92 NSCLC): 1.8 µM | TGI (HOP-92 NSCLC): 4.08 µM | GI50 (M14 melanoma): 1.68 µM | TGI (M14 melanoma): 3.56 µM | GI50 (EKVX NSCLC): 1.62 µM | TGI (EKVX NSCLC): 3.27 µM | GI50 (RXF 393 renal): 1.1 µM | TGI (RXF 393 renal): 2.44 µM

Source: PubChem BioAssay (NCI)
